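These data come from cells grown in 96-well plates and exposed to compound for 48 hours at five concentrations. GI50 = concentration required for 50% inhibition of growth.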 The source made the active and inactive calls. Rule as the data show it: active = GI50 up to about 1.1 µM and inactive = higher.
Experiments:
Assay in all cases: DTP human tumour cell line panel, 48 h
MDA-MB-231 = system: MDA-MB-231
HT-29 = system: HT-29
OVCAR-5 = system: OVCAR-5
UACC-62 = system: UACC-62
Hs-578T = system: Hs-578T
HCC 2998 = system: HCC 2998
NCI-H226 = system: NCI-H226
OVCAR-4 = system: OVCAR-4
RPMI-8226 = system: RPMI-8226
BT-549 = system: BT-549
IGROV-1 = system: IGROV-1
COLO 205 = system: COLO 205
HOP-62 = system: HOP-62
OVCAR-8 = system: OVCAR-8
SF-268 = system: SF-268
PC-3 = system: PC-3
U-251 = system: U-251
SW-620 = system: SW-620
DU-145 = system: DU-145
MDA-N = system: MDA-N

Measured: GI50

O=S(=O)([N-]c1nc2ccccc2nc1-[n+]1ccccc1)c1ccccc1
inactive: MDA-MB-231 28.9 µM | HT-29 > 100 µM | OVCAR-5 > 100 µM | UACC-62 93.1 µM | Hs-578T > 100 µM | HCC 2998 > 100 µM | NCI-H226 > 100 µM | OVCAR-4 > 100 µM | RPMI-8226 74 µM | BT-549 20.8 µM | IGROV-1 > 100 µM | COLO 205 > 100 µM | HOP-62 46.1 µM | OVCAR-8 68.5 µM | SF-268 > 100 µM | PC-3 > 100 µM

CSc1c(C#N)c(O)n(-c2ccc(C)cc2)c(=O)c1C(C)=O
inactive: MDA-MB-231 > 100 µM | HT-29 > 100 µM | OVCAR-5 42.8 µM | UACC-62 > 100 µM | Hs-578T > 100 µM | HCC 2998 > 100 µM | U-251 > 100 µM | NCI-H226 > 100 µM | OVCAR-4 > 100 µM | RPMI-8226 > 100 µM | BT-549 > 100 µM | IGROV-1 > 100 µM | COLO 205 > 100 µM | SW-620 > 100 µM | OVCAR-8 > 100 µM | SF-268 > 100 µM | DU-145 > 100 µM | PC-3 > 100 µM

C=CC(=O)C#CC#CC/C=C\CCCCCCC
inactive: MDA-MB-231 > 20.6 µM | HT-29 > 20.6 µM | OVCAR-5 > 20.6 µM | UACC-62 > 20.6 µM | Hs-578T > 20.6 µM | HCC 2998 > 20.6 µM | U-251 > 20.6 µM | NCI-H226 > 20.6 µM | OVCAR-4 > 20.6 µM | RPMI-8226 5.6 µM | BT-549 > 20.6 µM | IGROV-1 > 6.52 µM | COLO 205 > 20.6 µM | SW-620 > 20.6 µM | HOP-62 > 10.1 µM | OVCAR-8 > 19.8 µM | SF-268 > 20.6 µM | DU-145 > 20.6 µM

O/N=C1/CCCCCC1NO (stereo unspecified)
inactive: MDA-MB-231 > 100 µM | MDA-N > 100 µM | HT-29 > 100 µM | OVCAR-5 > 100 µM | UACC-62 > 100 µM | Hs-578T > 100 µM | HCC 2998 > 100 µM | U-251 > 100 µM | NCI-H226 > 100 µM | OVCAR-4 > 100 µM | RPMI-8226 > 100 µM | IGROV-1 > 100 µM | COLO 205 > 100 µM | SW-620 > 100 µM | HOP-62 > 100 µM | OVCAR-8 > 100 µM | SF-268 > 100 µM | DU-145 > 100 µM | PC-3 > 100 µM

From ChEMBL document CHEMBL1201862, “PubChem BioAssay data set” (2004)
